Data reported in PMC8333425, “Discovery of a dual Ras and ARF6 inhibitor from a GPCR endocytosis screen” (Nature Communications, 2021).
“And” between values parts separate entries of the source, which are not always exact repeats. Identical values can stand only once.

Test system: Akt activation by EGFR
Test: Western blot of EGFR-mediated Akt activation
Type: cell-based, human
Details: for AKT activation, EGFR (p-Akt over Akt): individual experiments
Experimental: HEK293SL cells (10^5 cells per well) were seeded in a poly-L-lysine-coated six-well plate and transiently transfected with 3 μg Flag-AT1R, HA-B2R or HA-β2AR and/or 500 ng Flag-MEK1-WT, Flag-MEK1-DD, Flag-BRAF-WT, Flag-BRAF-V600E, Flag-K-Ras-WT, Flag-K-Ras-G12V, HA-ARF6-WT, or HA-ARF6-T27N. Gαq/11 KO and βarr1/2 KO cells were seeded onto 100 mm dishes at a density of 10^6 cells per dish. Next day, cells were transfected with 3 μg AT1R alone or along with 500 ng of β-arrestin2 using PEI. After 18 h of transfection, cells were detached and re-seeded onto poly-L-lysine coated 12-well plates (~1.5–2 × 10^5cells/well) for subsequent experiments. Forty-eight hours post transfection, in a 37 °C water bath, cells were serum-starved for 30 min, pretreated with DMSO (0.1%) or compound 21/Rasarfin (50 µM or at indicated concentrations) for 30 min, then stimulated or not with the indicated ligand [AngII (1 µM), BK (1 µM), Iso (10 µM) or EGF (100 ng/ml)] at indicated times. Cells were put on ice, washed with PBS and solubilized in 2x laemmli buffer (250 mM Tris–HCl pH 6.8, 2% SDS (w/v), 10% glycerol (v/v), 0.01% bromophenol blue (w/v) and 5% β-mercaptoethanol (v/v)) by heating at 65 °C for 15 min. Lysates were resolved on 10 or 14% SDS-PAGE, transferred to nitrocellulose membranes and immunoblotted for p-ERK1/2, ERK1/2, p-Akt, Akt, HA, Myc, β-actin or FLAG. ImageLab 5.2 software was used to quantify the digital blots as fold of the phosphorylated protein over total protein, which were then normalized as indicated in the figure legends. Uncropped immunoblots are provided in the Source Data file.

CC(C)C(=O)N1CCN(c2ccc(NC(=O)c3cc4ccccc4o3)cc2Cl)CC1 [Compound 21]
IC50 (Homo sapiens, read-out: potency for inhibition of EGFR-mediated Akt (western blot)): 4 to 5 µM | AKT activation, EGFR (p-Akt over Akt) (Log [Comp 21] (M) -4.3): 12.9009 percent compared to DMSO and 28.9803 percent compared to DMSO and 32.6041 percent compared to DMSO | AKT activation, EGFR (p-Akt over Akt) (Log [Comp 21] (M) -5): 21.4684 percent compared to DMSO and 57.877 percent compared to DMSO and 33.8957 percent compared to DMSO | AKT activation, EGFR (p-Akt over Akt) (Log [Comp 21] (M) -5.3): 42.6879 percent compared to DMSO and 80.2621 percent compared to DMSO and 48.2006 percent compared to DMSO | AKT activation, EGFR (p-Akt over Akt) (Log [Comp 21] (M) -6): 93.9059 percent compared to DMSO and 99.6926 percent compared to DMSO and 89.9021 percent compared to DMSO | AKT activation, EGFR (p-Akt over Akt) (Log [Comp 21] (M) -6.3): 94.5153 percent compared to DMSO and 100.709 percent compared to DMSO and 97.0491 percent compared to DMSO | AKT activation, EGFR (p-Akt over Akt) (Log [Comp 21] (M) -7): 104.373 percent compared to DMSO and 93.1512 percent compared to DMSO and 83.461 percent compared to DMSO
